Measurements taken from paper PMC6848746 (Psychopharmacology, 2019).

How the values were obtained:
Experiment in all cases: Radioligand binding
5-HT2B = 5-HT2B (Homo sapiens, UniProt P41595)
β1 = β1 (Homo sapiens, UniProt P08588)
D1 = D1 (Homo sapiens, UniProt P21728)
α1A = biological target: T1, α1A (Homo sapiens, UniProt P35348)
T1 sequence (P35348 1-466): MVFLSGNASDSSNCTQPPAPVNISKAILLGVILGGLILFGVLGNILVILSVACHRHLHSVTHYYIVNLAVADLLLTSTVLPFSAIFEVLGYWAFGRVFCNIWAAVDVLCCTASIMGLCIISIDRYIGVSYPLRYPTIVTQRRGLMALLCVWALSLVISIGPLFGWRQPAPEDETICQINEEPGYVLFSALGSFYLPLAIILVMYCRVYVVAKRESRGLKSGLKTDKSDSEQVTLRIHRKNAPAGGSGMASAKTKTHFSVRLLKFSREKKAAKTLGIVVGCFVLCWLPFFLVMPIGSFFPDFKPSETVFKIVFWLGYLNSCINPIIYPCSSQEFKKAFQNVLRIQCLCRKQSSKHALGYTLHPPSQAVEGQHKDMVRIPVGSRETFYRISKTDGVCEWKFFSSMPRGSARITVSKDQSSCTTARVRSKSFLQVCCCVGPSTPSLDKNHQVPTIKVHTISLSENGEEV

5-HT1B = 5-HT1B (Homo sapiens, UniProt P28222)
Sequence of 5-HT1B (P28222 whole entry): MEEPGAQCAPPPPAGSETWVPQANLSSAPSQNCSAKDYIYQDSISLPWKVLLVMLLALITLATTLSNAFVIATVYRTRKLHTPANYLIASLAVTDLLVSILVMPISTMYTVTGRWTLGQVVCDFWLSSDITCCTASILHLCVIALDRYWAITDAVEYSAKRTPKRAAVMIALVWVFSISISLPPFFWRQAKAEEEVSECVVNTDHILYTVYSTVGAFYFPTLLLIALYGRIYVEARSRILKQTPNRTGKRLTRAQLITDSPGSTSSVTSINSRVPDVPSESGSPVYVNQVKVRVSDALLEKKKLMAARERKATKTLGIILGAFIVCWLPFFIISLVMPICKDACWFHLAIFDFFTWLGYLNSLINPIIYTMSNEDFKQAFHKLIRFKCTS

DAT = DAT (Homo sapiens, UniProt Q01959)
Sequence of DAT (Q01959 whole entry): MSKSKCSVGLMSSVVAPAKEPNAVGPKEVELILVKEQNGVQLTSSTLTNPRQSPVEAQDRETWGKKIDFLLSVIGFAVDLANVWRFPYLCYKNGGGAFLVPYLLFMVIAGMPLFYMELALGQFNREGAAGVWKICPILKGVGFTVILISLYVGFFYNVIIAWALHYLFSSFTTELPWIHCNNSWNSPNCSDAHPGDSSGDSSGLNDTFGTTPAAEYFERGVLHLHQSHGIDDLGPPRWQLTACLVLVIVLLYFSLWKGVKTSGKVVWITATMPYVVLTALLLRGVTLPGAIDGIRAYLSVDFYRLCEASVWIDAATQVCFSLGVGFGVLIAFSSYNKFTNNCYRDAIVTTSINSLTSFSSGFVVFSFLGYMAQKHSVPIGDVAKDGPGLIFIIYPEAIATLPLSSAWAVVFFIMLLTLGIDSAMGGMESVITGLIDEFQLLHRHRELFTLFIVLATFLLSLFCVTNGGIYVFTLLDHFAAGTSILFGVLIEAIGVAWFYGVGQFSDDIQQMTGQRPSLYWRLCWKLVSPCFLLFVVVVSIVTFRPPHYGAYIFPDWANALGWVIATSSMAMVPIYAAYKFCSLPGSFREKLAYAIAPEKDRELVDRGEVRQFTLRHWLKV

5-HT2C = biological target: T2, 5-HT2C (Homo sapiens, UniProt P28335)
T2 sequence (P28335 33-458): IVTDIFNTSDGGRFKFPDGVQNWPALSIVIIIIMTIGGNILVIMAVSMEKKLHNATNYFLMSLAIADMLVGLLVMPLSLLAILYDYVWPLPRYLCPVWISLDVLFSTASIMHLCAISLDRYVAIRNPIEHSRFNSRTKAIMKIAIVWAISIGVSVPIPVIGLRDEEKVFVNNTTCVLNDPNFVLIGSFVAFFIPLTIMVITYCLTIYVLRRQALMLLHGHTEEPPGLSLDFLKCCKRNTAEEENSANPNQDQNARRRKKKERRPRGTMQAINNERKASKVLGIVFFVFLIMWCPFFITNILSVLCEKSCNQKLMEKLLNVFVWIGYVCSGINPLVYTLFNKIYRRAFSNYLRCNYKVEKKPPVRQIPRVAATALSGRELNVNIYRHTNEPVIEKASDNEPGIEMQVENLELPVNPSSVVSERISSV

α2C = biological target: T3, α2C (Homo sapiens, UniProt P18825); conditions: for fold lower affinity for α2C compared to 2-AI: binding, [3H]rauwolscine
T3 sequence (P18825 1-462): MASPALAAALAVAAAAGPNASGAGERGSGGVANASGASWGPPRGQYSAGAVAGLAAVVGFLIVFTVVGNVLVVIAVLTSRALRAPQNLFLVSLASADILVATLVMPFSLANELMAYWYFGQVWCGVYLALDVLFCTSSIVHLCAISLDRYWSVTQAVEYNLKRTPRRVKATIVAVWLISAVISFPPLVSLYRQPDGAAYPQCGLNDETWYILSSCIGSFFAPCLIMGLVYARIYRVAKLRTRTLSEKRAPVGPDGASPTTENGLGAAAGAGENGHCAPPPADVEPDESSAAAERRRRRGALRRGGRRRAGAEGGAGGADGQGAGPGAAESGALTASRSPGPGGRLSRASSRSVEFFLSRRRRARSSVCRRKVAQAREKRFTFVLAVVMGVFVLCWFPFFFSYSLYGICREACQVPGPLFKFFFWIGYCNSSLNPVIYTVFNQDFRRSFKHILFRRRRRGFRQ

σ2 = biological target: T4, σ2 (Rattus norvegicus, UniProt Q5U3Y7)
T4 sequence (Q5U3Y7 1-176): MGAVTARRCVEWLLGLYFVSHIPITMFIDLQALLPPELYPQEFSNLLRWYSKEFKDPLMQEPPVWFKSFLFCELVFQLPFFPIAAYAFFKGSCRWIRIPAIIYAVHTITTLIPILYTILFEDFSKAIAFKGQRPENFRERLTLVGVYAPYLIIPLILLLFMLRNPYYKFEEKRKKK

σ1 = σ1 (Rattus norvegicus, UniProt Q9R0C9)
Sequence of σ1 (Q9R0C9 whole entry): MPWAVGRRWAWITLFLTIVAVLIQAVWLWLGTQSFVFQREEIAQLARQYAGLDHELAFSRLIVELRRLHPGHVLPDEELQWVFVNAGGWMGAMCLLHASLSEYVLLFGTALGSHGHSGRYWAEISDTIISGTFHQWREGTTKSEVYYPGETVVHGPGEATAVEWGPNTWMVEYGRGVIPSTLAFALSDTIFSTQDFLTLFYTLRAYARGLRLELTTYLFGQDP

α2A = biological target: T5, α2A (Homo sapiens, UniProt P08913); conditions: for fold lower affinity for α2A compared to 2-AI: binding, [3H]rauwolscine
T5 sequence (P08913 1-465): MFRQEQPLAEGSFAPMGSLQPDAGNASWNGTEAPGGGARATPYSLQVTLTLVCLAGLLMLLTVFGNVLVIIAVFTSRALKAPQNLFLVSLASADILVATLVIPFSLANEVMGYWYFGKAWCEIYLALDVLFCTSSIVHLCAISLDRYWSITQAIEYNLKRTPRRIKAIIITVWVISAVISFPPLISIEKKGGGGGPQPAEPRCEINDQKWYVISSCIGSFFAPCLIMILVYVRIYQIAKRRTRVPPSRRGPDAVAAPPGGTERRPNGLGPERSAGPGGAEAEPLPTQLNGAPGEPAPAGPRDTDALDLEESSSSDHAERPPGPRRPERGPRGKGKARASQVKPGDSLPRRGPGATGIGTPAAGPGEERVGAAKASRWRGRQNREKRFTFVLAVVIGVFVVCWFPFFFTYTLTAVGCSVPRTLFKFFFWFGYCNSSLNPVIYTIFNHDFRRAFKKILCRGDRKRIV

5-HT6 = 5-HT6 (Homo sapiens, UniProt P50406)
Sequence of 5-HT6 (P50406 whole entry): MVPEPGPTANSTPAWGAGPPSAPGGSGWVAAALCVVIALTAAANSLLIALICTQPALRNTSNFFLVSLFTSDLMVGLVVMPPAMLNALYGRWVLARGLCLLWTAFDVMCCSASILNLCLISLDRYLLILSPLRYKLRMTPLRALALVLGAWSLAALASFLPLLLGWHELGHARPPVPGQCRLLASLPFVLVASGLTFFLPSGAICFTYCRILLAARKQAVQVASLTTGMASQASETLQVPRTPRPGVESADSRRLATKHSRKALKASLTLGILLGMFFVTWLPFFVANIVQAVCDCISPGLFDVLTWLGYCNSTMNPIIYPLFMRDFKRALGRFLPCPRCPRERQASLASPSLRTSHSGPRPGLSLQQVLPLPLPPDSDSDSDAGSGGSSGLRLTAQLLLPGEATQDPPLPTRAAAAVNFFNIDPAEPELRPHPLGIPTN

5-HT7 = 5-HT7 (Homo sapiens, UniProt P34969)
Sequence of 5-HT7 (P34969 whole entry): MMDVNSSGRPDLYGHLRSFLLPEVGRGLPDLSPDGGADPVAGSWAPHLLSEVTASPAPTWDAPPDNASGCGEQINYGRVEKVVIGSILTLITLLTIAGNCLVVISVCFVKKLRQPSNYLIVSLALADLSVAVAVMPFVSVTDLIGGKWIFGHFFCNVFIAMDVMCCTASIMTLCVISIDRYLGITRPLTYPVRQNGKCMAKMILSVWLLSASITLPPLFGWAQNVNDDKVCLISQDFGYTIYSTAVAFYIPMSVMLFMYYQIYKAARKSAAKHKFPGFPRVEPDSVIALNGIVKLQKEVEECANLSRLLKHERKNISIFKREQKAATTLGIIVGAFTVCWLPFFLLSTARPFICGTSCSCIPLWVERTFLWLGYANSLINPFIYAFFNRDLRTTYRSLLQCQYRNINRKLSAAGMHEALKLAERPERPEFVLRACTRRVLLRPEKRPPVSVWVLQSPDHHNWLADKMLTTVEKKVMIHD

SERT = SERT (Homo sapiens, UniProt P31645)
Sequence of SERT (P31645 whole entry): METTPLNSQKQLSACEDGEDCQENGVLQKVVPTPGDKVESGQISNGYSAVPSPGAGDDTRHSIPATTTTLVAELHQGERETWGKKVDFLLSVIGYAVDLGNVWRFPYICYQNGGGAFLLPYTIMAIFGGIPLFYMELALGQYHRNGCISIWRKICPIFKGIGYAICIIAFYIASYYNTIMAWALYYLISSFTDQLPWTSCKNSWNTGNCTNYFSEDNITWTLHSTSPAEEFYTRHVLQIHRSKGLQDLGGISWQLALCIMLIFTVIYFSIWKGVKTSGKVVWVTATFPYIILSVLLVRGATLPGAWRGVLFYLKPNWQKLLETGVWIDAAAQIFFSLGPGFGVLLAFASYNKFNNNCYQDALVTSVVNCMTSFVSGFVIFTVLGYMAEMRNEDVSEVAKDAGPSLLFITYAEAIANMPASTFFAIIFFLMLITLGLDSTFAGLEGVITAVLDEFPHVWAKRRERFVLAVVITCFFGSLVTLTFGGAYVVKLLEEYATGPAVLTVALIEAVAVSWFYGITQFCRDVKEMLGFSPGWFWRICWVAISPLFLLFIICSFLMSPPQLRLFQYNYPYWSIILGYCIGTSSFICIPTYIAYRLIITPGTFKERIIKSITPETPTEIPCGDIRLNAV

β2 = β2 (Homo sapiens, UniProt P07550)
Sequence of β2 (P07550 whole entry): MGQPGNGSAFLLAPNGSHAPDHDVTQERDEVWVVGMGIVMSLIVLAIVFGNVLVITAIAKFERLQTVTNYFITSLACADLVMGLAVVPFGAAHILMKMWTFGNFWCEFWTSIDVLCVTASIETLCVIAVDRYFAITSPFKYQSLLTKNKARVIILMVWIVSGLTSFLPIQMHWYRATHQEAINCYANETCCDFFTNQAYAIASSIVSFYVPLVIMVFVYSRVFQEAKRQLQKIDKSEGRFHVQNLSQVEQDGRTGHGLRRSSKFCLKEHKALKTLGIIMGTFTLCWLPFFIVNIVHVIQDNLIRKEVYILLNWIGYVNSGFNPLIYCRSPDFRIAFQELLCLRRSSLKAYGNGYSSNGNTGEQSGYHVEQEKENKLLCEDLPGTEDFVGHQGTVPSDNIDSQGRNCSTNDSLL

Sequence of D1 (P21728 whole entry): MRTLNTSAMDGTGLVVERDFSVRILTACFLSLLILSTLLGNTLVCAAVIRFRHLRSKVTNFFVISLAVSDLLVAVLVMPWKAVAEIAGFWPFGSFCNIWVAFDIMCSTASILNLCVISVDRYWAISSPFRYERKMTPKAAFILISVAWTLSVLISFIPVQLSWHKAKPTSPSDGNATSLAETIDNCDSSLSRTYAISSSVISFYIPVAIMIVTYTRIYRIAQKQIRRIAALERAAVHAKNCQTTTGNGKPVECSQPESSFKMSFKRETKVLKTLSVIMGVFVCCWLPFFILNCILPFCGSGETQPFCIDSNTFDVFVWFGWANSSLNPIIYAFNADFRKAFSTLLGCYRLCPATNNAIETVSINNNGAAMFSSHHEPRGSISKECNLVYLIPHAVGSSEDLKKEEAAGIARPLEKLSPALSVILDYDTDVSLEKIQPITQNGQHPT
Sequence of β1 (P08588 whole entry): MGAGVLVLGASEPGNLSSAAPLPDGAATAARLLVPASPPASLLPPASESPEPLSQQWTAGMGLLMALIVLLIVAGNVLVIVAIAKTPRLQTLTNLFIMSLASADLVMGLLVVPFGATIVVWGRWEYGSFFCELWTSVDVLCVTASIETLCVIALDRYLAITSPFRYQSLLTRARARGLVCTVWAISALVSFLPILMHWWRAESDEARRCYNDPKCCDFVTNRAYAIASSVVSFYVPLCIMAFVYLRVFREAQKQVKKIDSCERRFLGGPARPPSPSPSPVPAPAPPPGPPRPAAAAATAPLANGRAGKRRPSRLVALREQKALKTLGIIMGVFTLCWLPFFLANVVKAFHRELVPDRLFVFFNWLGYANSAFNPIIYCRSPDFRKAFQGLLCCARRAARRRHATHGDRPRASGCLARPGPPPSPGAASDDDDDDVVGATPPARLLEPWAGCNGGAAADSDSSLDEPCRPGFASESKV
Sequence of 5-HT2B (P41595 whole entry): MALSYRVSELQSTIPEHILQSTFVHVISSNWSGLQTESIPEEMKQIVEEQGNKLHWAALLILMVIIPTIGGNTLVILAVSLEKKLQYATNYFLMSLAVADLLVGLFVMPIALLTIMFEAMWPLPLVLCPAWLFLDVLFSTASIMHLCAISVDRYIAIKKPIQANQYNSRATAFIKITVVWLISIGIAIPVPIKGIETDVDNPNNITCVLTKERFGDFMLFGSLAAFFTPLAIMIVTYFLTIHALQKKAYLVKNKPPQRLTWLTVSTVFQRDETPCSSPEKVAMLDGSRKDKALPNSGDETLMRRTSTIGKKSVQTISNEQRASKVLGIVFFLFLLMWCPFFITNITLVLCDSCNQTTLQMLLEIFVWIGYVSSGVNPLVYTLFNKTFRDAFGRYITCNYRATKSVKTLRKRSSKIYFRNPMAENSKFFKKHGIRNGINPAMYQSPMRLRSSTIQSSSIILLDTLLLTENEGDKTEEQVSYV

| Structure (SMILES) | Ki (5-HT2B) [µM] | Ki (β1) [µM] | Ki (D1) [µM] | Ki (α1A) [µM] | Ki (5-HT1B) [µM] | Ki (DAT) [µM] | Ki (5-HT2C) [µM] | Ki (α2C) [µM] | fold lower affinity for α2C compared to 2-AI (α2C) [fold] | Ki (σ2) [µM] | Ki (σ1) [µM] | Ki (α2A) [µM] | fold lower affinity for α2A compared to 2-AI (α2A) [fold] | Ki (5-HT6) [µM] | Ki (5-HT7) [µM] | Ki (SERT) [µM] | Ki (β2) [µM] | displacement at 5-HT2B receptor (5-HT2B; at 10 μM, primary binding assay) [%] |
| --- | --- | --- | --- | --- | --- | --- | --- | --- | --- | --- | --- | --- | --- | --- | --- | --- | --- | --- |
| COc1ccc2c(c1)CC(N)C2 (centres unmarked) [5-MeO-AI, 5-methoxy-2-aminoindan] | 4.79 | > 10 | > 10 | > 10 | > 10 | > 10 | > 10 | 1.22 | 30 | > 10 | > 10 | 0.751 ± 0.338 | 5 | > 10 | > 10 | > 10 | > 10 |  |
| COc1cc2c(cc1C)CC(N)C2 (centres unmarked) [MMAI, 5-methoxy-6-methyl-2-aminoindan] | 0.902 ± 0.445 | > 10 | > 10 | > 10 | 2.78 | > 10 | > 10 | 1.38 | 30 | > 10 | > 10 | 0.724 ± 0.477 | 5 | > 10 | 1.01 | 4.82 | > 10 |  |
| NC1Cc2ccccc2C1 [2-AI, 2-aminoindan] | > 10 | > 10 | > 10 | > 10 | > 10 | > 10 | > 10 | 0.041 ± 0.026 |  | > 10 | > 10 | 0.134 ± 0.031 |  | > 10 | > 10 | > 10 | > 10 |  |
| NC1Cc2cc3c(cc2C1)OCO3 [MDAI, 5,6-methylenedioxy-2-aminoindan] | > 10 | > 10 | > 10 | > 10 | > 10 | > 10 | > 10 | 0.363 ± 0.219 |  | > 10 | > 10 | 0.322 ± 0.114 |  | > 10 | > 10 | > 10 | > 10 | < 50 |
